Test results reported in US20220380443A1, “TARGETING NAPA-LINKED PEP[…] TREATING LYME DISEASE” (priority 2021, published 2022).

What was measured:
dHL-60 cells = assay: dHL-60 cell (neutrophil) migration in microfluidic competitive chemotaxis-chip (μC3); assay type: cell-based, Human; settings: 125 μg/mL PG sample, 10 nM fMLP, 100 nM LTB4, 5 hours; for Percentage of Cells Migrated toward stimulus: mean±SD of three biological replicates
Excerpt: Fresh, mixed donor human peripheral blood mononuclear cells (PBMCs) (Zen-Bio) were re-suspended in PBMC media (Zen-Bio) overnight prior to stimulations. Human NOD2 reporter cells, which were used to detect PG in OMVs (see below), were purchased from Invi-vogen and cultured as recommended by the manufacturer. Human promyelocytic leukemia cells (HL-60 CCL-240, American Type Culture Collection ATCC, Manassas, Va.) were cul-tured in complete media comprising of Iscove's Modified Dulbecco's Medium (IMDM, ATCC, Manassas, Va.) supplemented with 10% fetal bovine serum (FBS, ATCC, Manassas, Va.) at 37° C. in 5% CO2, according to ATCC instructions. HL-60 cells were differentiated into a neutrophil-like state with 1.5% dimethyl sulfoxide (DMSO, Sigma-Aldrich, St. Louis, Mo.) to 1.5×10^5 cells/mL for five days. Differentiated HL-60 cells (dHL-60 cells) were stained with Hoechst solution [20 mM] for 10 minutes (Thermo Fisher Scientific, Waltham, Mass.) at 37° C. and 5% CO2 and spun down and re-suspended into a concentration of 5.0×10^7 cells/mL immediately before use in the migration assay.
The microfluidic competitive chemotaxis-chip (μC3) was used to perform each migration assay. This device allowed for the creation of a dual gradient through two opposing chemoattractant reservoirs. The central cell-loading chamber is connected to the two reservoirs by perpendicular cell migration ladders (measured 10 μm wide×10 μm tall). Device fabrication was as previously. Briefly, two layers of photoresist (SUB, MicroChem), the first one 10 μm thin (corresponding to the migration channels) and the second one 70 μm thick (corresponding to the neutrophil loading chamber) were patterned on one silicon wafer sequentially using two photolithographic masks and processing cycles according to the instructions from the manufacturer. The wafer with patterned photoresist was used as a mold to produce polydimethylsiloxane (PDMS) (Sylgard 184, Elsworth Adhesives, Wilmington, Mass.) devices, which were then bonded to the base of glass-bottom 6-well plates (MatTek Corp., Ashland, Mass.), using an oxygen plasma machine (Nordson March, Concord, Calif.). Prior to each migration assay, the device was primed with fibronectin (Sigma-Aldrich, St. Louis, Mo.) (11 μg/mL). After priming with fibronectin, each device was covered in 4 mL complete media. […]
Each assay was visualized on a fully automated Nikon TiE microscope using a Plan Fluor 10×Ph1 DLL (NA=0.3) lens with a biochamber heated to 37° C. with 5% CO2. […] Image analysis of cell migration counts was analyzed automatically using ImageJ Cell tracking was conducted using an automated tracker, TrackMate (custom tracking and analysis codes are available for download at https://github.com/boribong/Single-Cell-Migration-Tracking) and ImageJ software (NIH). […]

[1] = tested on: B. burgdorferi 5A11 and 5A11/napA; assay: Lysozyme and NaCl stress tests (microtiter growth, colony forming units); assay type: cell-based, Borrelia burgdorferi; settings: microtiter plate, end-point after 6 days, FIG. 7A
Protocol: Initial studies geared towards understanding both permissive and restrictive growth conditions upon stress were performed in microplates with serial dilutions. Each strain was cultured to ˜1×10^6 cells/mL and subsequently back diluted to a final concentration of 1×10^4 cells/mL in fresh B SKIT containing cell-wall stress. Lysozyme and NaCl were serially diluted 1:1. The final concentration of Lysozyme ranged from 2 mg/mL to 0 mg/mL, while NaCl varied from 500 nM to 7.8 mM. […] Both microtiter plates contained 4 wells of uninoculated media, which served as a negative control. These 96 well plates were allowed to incubate at 37° C. under 5% CO2 for 6 days. Afterwards, they were placed at ambient conditions for 2 hours before being imaged.
Parental and NapA mutant bacteria were cultured to ˜6.5×10^6 cells/mL and back diluted to a final starting concentration of 10^6 cells/mL. Each culture was stressed with Lysozyme (0.37 mg/mL) or NaCl (0.111 M) for 24 hours without additional antibiotic selection. Afterwards, each culture was plated using standard methods [92] and cultured at 37° C. under 5% CO2.

| Compound | dHL-60 Cell Velocity, cells migrating toward stimulus (dHL-60 cells) | Percentage of Cells Migrated toward stimulus (dHL-60 cells) | resistance of wild-type cells to NaCl-induced stress versus 5A11/napA ([1]; NaCl 7.8 to 500 mM) | less enzyme needed to ablate 5A11/napA growth than wild-type bacteria ([1]; Lysozyme 0 to 2 mg/mL) |
| --- | --- | --- | --- | --- |
| CCCCC/C=C\C[C@@H](O)/C=C/C=C/C=C\[C@@H](O)CCCC(=O)O [LTB4, Leukotriene B4] | 7.04±4.90 μm/min | 25.89±3.52% | – | – |
| [Cl-].[Na+] [NaCl] | – | – | more than 8 times | – |
| Formylmethionine-leucyl-phenylalanine [fMLP] | 6.93±4.40 μm/min | 35.94±5.42% | – | – |
| Lysozyme | – | – | – | 5-6 times |
